Measured values published in the supplement of paper PMC5908809.

Key:
[1] = test system: normal primary NK cells, pool 3 (3 donors) (IL-2 2.5 ng/mL); assay: drug sensitivity score (DSS) (DSS units); higher = more sensitive; extreme values may be limits of the assay; conditions: 72 h
SNK-6 (IL-2 2.5 ng/mL) [2] = assay: as above; conditions: 72 h
[3] = test system: normal primary NK cells, pool 2 (3 donors) (IL-2 2.5 ng/mL); assay: as above; conditions: 72 h
NK-92 (IL-2 2.5 ng/mL) [4] = assay: as above; conditions: 72 h
DERL-7 (IL-2 2.5 ng/mL) [5] = assay: as above; conditions: 72 h
IMC-1 (IL-2 20 ng/mL) [6] = assay: as above; conditions: 72 h
NK-YS (IL-2 2.5 ng/mL) [7] = assay: as above; conditions: 72 h
NKL (IL-2 2.5 ng/mL) [8] = assay: as above; conditions: 72 h
[9] = test system: normal primary NK cells, pool 1 (3 donors), resting (IL-2 0 ng/mL); assay: as above; conditions: 72 h
YT (IL-2 2.5 ng/mL) [10] = assay: as above; conditions: 72 h
[11] = test system: normal primary NK cells, pool 1 (3 donors) (IL-2 2.5 ng/mL); assay: as above; conditions: 72 h
KAI3 (IL-2 2.5 ng/mL) [12] = assay: as above; conditions: 72 h
KHYG-1 (IL-2 2.5 ng/mL) [13] = assay: as above; conditions: 72 h
[14] = test system: normal NK cells expanded with K562-aAPC; assay: percent inhibition of viability; higher = more inhibition; conditions: 72 h, IL-2 2.5 ng/mL
Description: (§1)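 Drug sensitivity and resistance testing on K562-aAPC-expanded normal NK cells: 5 concentrations (10-fold steps over a 10,000-fold range), 72 h at 37 °C, viability by CellTiter-Glo normalised to DMSO and benzethonium chloride controls; DSS from the fitted curve.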

[15] = test system: normal NK cells expanded with K562-aAPC; assay: drug sensitivity score (DSS) (DSS units); higher = more sensitive; extreme values may be limits of the assay; conditions: 72 h; IL-2 2.5 ng/mL
Description: as §1

[16] = test system: normal primary NK cells, pool 3 (3 donors) (IL-2 2.5 ng/mL); assay: percent inhibition of viability; higher = more inhibition; conditions: 72 h
SNK-6 (IL-2 2.5 ng/mL) [17] = assay: as above; conditions: 72 h
[18] = test system: normal primary NK cells, pool 2 (3 donors) (IL-2 2.5 ng/mL); assay: as above; conditions: 72 h
NK-92 (IL-2 2.5 ng/mL) [19] = assay: as above; conditions: 72 h
DERL-7 (IL-2 2.5 ng/mL) [20] = assay: as above; conditions: 72 h
IMC-1 (IL-2 20 ng/mL) [21] = assay: as above; conditions: 72 h
NK-YS (IL-2 2.5 ng/mL) [22] = assay: as above; conditions: 72 h
NKL (IL-2 2.5 ng/mL) [23] = assay: as above; conditions: 72 h
[24] = test system: normal primary NK cells, pool 1 (3 donors), resting (IL-2 0 ng/mL); assay: as above; conditions: 72 h
YT (IL-2 2.5 ng/mL) [25] = assay: as above; conditions: 72 h
[26] = test system: normal primary NK cells, pool 1 (3 donors) (IL-2 2.5 ng/mL); assay: as above; conditions: 72 h
KAI3 (IL-2 2.5 ng/mL) [27] = assay: as above; conditions: 72 h
KHYG-1 (IL-2 2.5 ng/mL) [28] = assay: as above; conditions: 72 h
DERL-7 (IL-2 2.5 ng/mL) [29] = assay: relative IC50 (inflection point of fitted viability curve, relative to fitted max inhibition); higher = less sensitive; conditions: 72 h
Description: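 Drug sensitivity and resistance testing: 5 concentrations over a 10,000-fold range, 72 h at 37 °C, viability by CellTiter-Glo normalised to DMSO and benzethonium chloride controls. IC50 is the inflection point of a logistic fit (min fixed at 0, max fitted), so it is relative to the fitted maximal inhibition. Kept only where fitted max inhibition is at least 50%.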

Cc1ccc(-n2nc(C(C)(C)C)cc2NC(=O)Nc2ccc(OCCN3CCOCC3)c3ccccc23)cc1 [Doramapimod] (max concentration tested 10000 nM)
Conditions	drug sensitivity score
DERL-7 (IL-2 2.5 ng/mL) [5]	1.44
IMC-1 (IL-2 20 ng/mL) [6]	2.23
KAI3 (IL-2 2.5 ng/mL) [12]	10.7
KHYG-1 (IL-2 2.5 ng/mL) [13]	4.24
NK-92 (IL-2 2.5 ng/mL) [4]	5.9
NK-YS (IL-2 2.5 ng/mL) [7]	6.27
NKL (IL-2 2.5 ng/mL) [8]	16.4
SNK-6 (IL-2 2.5 ng/mL) [2]	0
YT (IL-2 2.5 ng/mL) [10]	3.98
[1]	5.02
[3]	4.66
[9]	5.69
[11]	4.39
[15]	5.25

percent inhibition of viability [%]
Conditions	1 nM	10 nM	100 nM	1000 nM	10000 nM
DERL-7 (IL-2 2.5 ng/mL) [20]	-1.24	0.45	-6.35	0.4	31.3
IMC-1 (IL-2 20 ng/mL) [21]	-7.13	-0.74	1.31	8.39	27.3
KAI3 (IL-2 2.5 ng/mL) [27]	-7.62	9.59	18.9	43.5	68
KHYG-1 (IL-2 2.5 ng/mL) [28]	-0.62	4.98	0.58	7.1	56.5
NK-92 (IL-2 2.5 ng/mL) [19]	13	11	8.99	11.7	71.5
NK-YS (IL-2 2.5 ng/mL) [22]	-8.49	3.68	5.33	24.4	63.3
NKL (IL-2 2.5 ng/mL) [23]	-7.33	-0.1	12	80.7	98.6
SNK-6 (IL-2 2.5 ng/mL) [17]	-8.06	6.04	-5.96	-39.3	6.22
YT (IL-2 2.5 ng/mL) [25]	1.11	9.26	7.83	16.7	45
[14]	-6.83	-0.74	-1.74	16.5	52.8
[16]	-11.6	-1.56	4.57	2.15	85.2
[18]	-9.43	-4.09	6.14	-0.89	85.1
[24]	0.09	-4.02	-3.55	3.17	94.7
[26]	2.74	-0.9	-0.42	-10.6	91.3

COc1cccc2c1C(=O)c1c(O)c3c(c(O)c1C2=O)C[C@@](O)(/C(CO)=N/NC(=O)CCCCCN1C(=O)C=CC1=O)C[C@@H]3O[C@H]1C[C@H](N)[C@H](O)[C@H](C)O1 [Aldoxorubicin] (max concentration tested 1000 nM)
Conditions	drug sensitivity score
DERL-7 (IL-2 2.5 ng/mL) [5]	17.6
IMC-1 (IL-2 20 ng/mL) [6]	16
KAI3 (IL-2 2.5 ng/mL) [12]	14.2
KHYG-1 (IL-2 2.5 ng/mL) [13]	14.7
NK-92 (IL-2 2.5 ng/mL) [4]	12
NK-YS (IL-2 2.5 ng/mL) [7]	17
NKL (IL-2 2.5 ng/mL) [8]	28.9
SNK-6 (IL-2 2.5 ng/mL) [2]	18.9
YT (IL-2 2.5 ng/mL) [10]	13.6
[1]	9.86
[3]	11.3
[9]	12.4
[11]	9.69
[15]	11.1

percent inhibition of viability [%]
Conditions	0.1 nM	1 nM	10 nM	100 nM	1000 nM
DERL-7 (IL-2 2.5 ng/mL) [20]	-4.24	-3.44	13.3	87.3	101
IMC-1 (IL-2 20 ng/mL) [21]	-3.88	-4.51	3.18	86.5	101
KAI3 (IL-2 2.5 ng/mL) [27]	-11.1	-12.4	4.9	74.1	87
KHYG-1 (IL-2 2.5 ng/mL) [28]	-0.32	5.45	-0.18	79.9	106
NK-92 (IL-2 2.5 ng/mL) [19]	-14.3	-7.33	-3.29	53.2	104
NK-YS (IL-2 2.5 ng/mL) [22]	-4.26	-3.37	13.9	83.1	103
NKL (IL-2 2.5 ng/mL) [23]	-13.6	-5.62	92.1	103	107
SNK-6 (IL-2 2.5 ng/mL) [17]	7.67	13.7	17.1	91.1	95.2
YT (IL-2 2.5 ng/mL) [25]	3.75	-0.69	-3.82	70.5	105
[14]	0.3	4.21	5.36	47	101
[16]	-11.3	-10.4	0.28	31.5	97.1
[18]	-13.7	-6.33	0.42	49.2	94.5
[24]	-26	-23.3	-31.6	64.9	91.5
[26]	-11.9	-3.83	-12.3	29.5	97.6

COc1ccc2c(OCc3nnc4ccc(-c5ccccc5)nn34)ccnc2c1 [AMG-208]
Conditions	relative IC50 [nM]
DERL-7 (IL-2 2.5 ng/mL) [29]	> 2500
